Holding throughout (test): growth of human tumour cells (NCI), 48 h
Assay [1] relates to ACHN renal.
The test system of assay [2] is BT-549 breast.
For assay [3], the system named is HL-60(TB) leukemia.
Assay [4] relates to MDA-MB-231 breast.
Assay [5] has as its system MOLT-4 leukemia.
For assay [6], the system named is OVCAR-3 ovarian.
Assay [7] has as its system PC-3 prostate.
Assay [8] relates to RXF 393 renal.
In assay [9] the test system is SK-MEL-2 melanoma.
Assay [10] relates to SN12C renal.

SMILES strings stand for the structures.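 Five compound concentrations were applied to cells in 96-well plates for 48 hours; endpoints were derived by simple linear interpolation of the resulting dose-response curve. GI50 is the concentration that inhibits growth by half. TGI marks complete inhibition of growth.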 Bounds are passed on as bounds.

For `CCN(CC)CCNC(=O)c1ccc(C)c(OCc2ccccc2)c1[N+](=O)[O-]`, the TGI in assay [1] was greater than 89.6 µM; in assay [2], greater than 50.6 µM; in [3], 53.3 µM; in assay [4], greater than 100 µM; in assay [5], 77.8 µM; in [6], greater than 75.8 µM. The TGI in [7] was greater than 100 µM; in assay [8] it was greater than 91.3 µM; in assay [9], 41 µM; in assay [10], greater than 100 µM.
For the compound `COc1ccc2c(Oc3ccc(NC(=O)c4c(C)n(CC(C)(C)O)n(-c5ccccc5)c4=O)nc3)ccnc2c1`, the GI50 was 5.02 µM in assay [1]; 22.7 µM in [2]; 14.6 µM in assay [3]; 8.92 µM in [4]; 9.07 µM in [5]; 19.5 µM in [6]. In addition, the GI50 in assay [7] is 19.5 µM; in assay [8], 3.38 µM; in assay [9], 13.3 µM; in [10], 4.94 µM. Also, the TGI in assay [1] was greater than 100 µM; in assay [2], greater than 66 µM; in assay [3], greater than 62.3 µM; in assay [4], greater than 93.5 µM; in assay [5], greater than 100 µM; in [6], 70.6 µM. The TGI in assay [7] was greater than 95.6 µM; in assay [8], 41.5 µM; in assay [9] it was 49.4 µM; in [10], greater than 100 µM.
Take `NC(=S)N/N=C/c1cc(-c2cccc(N)c2)ccn1`: the GI50 was 1.06 µM in assay [1]; 3.52 µM in assay [2]; 0.281 µM in assay [3]; 3.6 µM in assay [4]; 0.588 µM in assay [5]; 1.67 µM in assay [6]. The GI50 was 1.07 µM in assay [7], 2.32 µM in [8], 3.6 µM in assay [9] and 2.52 µM in assay [10]. Moreover, the TGI in assay [1] is 16.1 µM; in [2], greater than 100 µM; in [4] it was greater than 100 µM; in assay [5], greater than 100 µM; in [6], 23.2 µM; in [7], greater than 100 µM. Moreover, the figures for the TGI in assay [8], in assay [9] and in assay [10] were 42.4 µM, 43.8 µM and greater than 100 µM, respectively.
For the compound `Cc1nn(C(=O)c2ccc(Cl)cc2)c2c1C(c1ccc(O)cc1)SC(N)=N2` (centres undefined), the TGI in assay [1], in assay [2], in assay [3], in [4], in assay [5] and in [6] was greater than 10 µM in each case. For the same compound, the TGI in assay [7], in assay [8], in assay [9] and in assay [10] was greater than 10 µM throughout.
With `COC(=O)c1cc(/C=C/c2ccc(S(N)(=O)=O)cc2)ccc1O`, the GI50 is 29.6 µM in [1]; 16.3 µM in assay [2]; greater than 100 µM in assay [3]; 24.9 µM in [4]; 73.1 µM in assay [5]; 16.5 µM in [6]. Moreover, the GI50 is 30.7 µM in assay [7], 43.4 µM in assay [8], 66.8 µM in assay [9] and 29.3 µM in [10]. The TGI in [1] was greater than 100 µM; in assay [2], 56.2 µM; in assay [3] it was greater than 100 µM; in assay [4], 60.5 µM; in assay [5] it was greater than 100 µM; in [6], 62.7 µM. In addition, the TGI in assay [7] was greater than 100 µM; in assay [8] it was greater than 100 µM; in assay [9] it was greater than 100 µM; in assay [10], 89.9 µM.
Consider `Nc1ccccc1SC1CC(=O)N(c2ccc(Cl)c(Cl)c2)C1=O` (centres undefined), for which the GI50 is 19.4 µM in assay [1]; 62.2 µM in assay [2]; greater than 100 µM in [3]; 17.9 µM in assay [4]; 7.7 µM in assay [5]; 11.6 µM in assay [6]. Further, the GI50 in assay [7] was 8.78 µM; in [8], 14.2 µM; in [9] it was 26.9 µM; in assay [10] it was 28.5 µM. Moreover, the TGI in [1] was 74.9 µM; in assay [2], greater than 100 µM; in [3], greater than 100 µM; in assay [4], greater than 100 µM; in [5] it was greater than 100 µM; in assay [6], 44 µM. The TGI was greater than 100 µM in assay [7], 42.8 µM in assay [8], greater than 100 µM in assay [9] and greater than 100 µM in assay [10].
As to `COc1ccc(/C=C(/c2ccccc2)[N+](=O)[O-])cc1`, the GI50 in assay [1] is 1.55 µM; in [2] it was 1.42 µM; in [3], 2.35 µM; in assay [4], 1.59 µM; in assay [5], 2.18 µM; in assay [6] it was 1.36 µM. The GI50 in assay [7] is 1.46 µM; in [8], 1.35 µM; in [9], 1.92 µM; in assay [10], 1.36 µM. In addition, the TGI in assay [1] was 2.9 µM; in assay [2], 2.88 µM; in [3], 6.87 µM; in assay [4], 3.09 µM; in [5], 6.28 µM; in [6], 2.69 µM. Besides, the TGI was found to be 3.21 µM in assay [7], 2.78 µM in assay [8], 4.44 µM in [9] and 2.9 µM in assay [10].
For the compound `O/C(=C\c1nc2ccccc2nc1NC12CC3CC(CC(C3)C1)C2)c1ccc(Br)cc1`, the TGI in assay [1], in assay [2], in assay [3], in [4], in [5] and in assay [6] was greater than 10 µM in each case. For the same compound, the TGI in assay [7], in assay [8], in assay [9] and in assay [10] was greater than 10 µM throughout.
As for `Nc1ccc2[nH]cc(CCC(=O)O)c2c1`, the TGI in assay [1] was greater than 100 µM; in assay [2], greater than 100 µM; in [3] it was 76.5 µM; in assay [4], greater than 100 µM; in assay [5], greater than 100 µM; in assay [6], greater than 100 µM. In addition, the TGI in assay [7], in assay [8], in [9] and in assay [10] was greater than 100 µM in each case.

For the origin of these results see PubChem BioAssay (NCI).
